One may read the IC50 as the concentration that gives 50% inhibition. The low end stands for inhibition by little substance, the high end for a need for much substance.

Bounds are passed on as bounds.

The test system of the test is Endogenous Huntingtin Protein. The test is described as follows: Endogenous Huntingtin Protein Assay (Meso Scale Discovery ELISA-based electrochemiluminescence). Type of test: cell-based. To be noted: MSD plates coated with MW1 (expanded polyglutamine) or MAB2166 capture antibody; lysates. In outline: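 MSD electrochemiluminescence sandwich ELISA: MW1 (expanded polyQ) or MAB2166 capture antibody at 1 μg/mL, samples incubated overnight at 4° C. Detection with rabbit monoclonal #5656S then SULFO-TAG anti-rabbit antibody, each 0.25 μg/mL for 1 h at room temperature.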
(In an ELISA, binding on a coated surface is turned into a signal by an enzyme label.)
`CC1(C)C=C(c2csc3cc(-c4ccc(-c5cn[nH]c5)cc4O)nnc23)CC(C)(C)N1` [Cpd 17, 5-(1H-pyrazol-4-yl)-2-[7-(2,2,6,6-tetramethyl-1,2,3,6-tetrahydropyridin-4-yl)thieno[3,2-c]pyridazin-3-yl]phenol]: the 50% inhibitory concentration (IC50) is no more than 100 nM. Compound `CCn1ncc(-c2ccc(-c3cc4nnn(C5CC(C)(C)NC(C)(C)C5)c4nn3)c(O)c2)c1F` [Cpd 122, 5-(1-ethyl-5-fluoro-1H-pyrazol-4-yl)-2-[3-(2,2,6,6-tetramethylpiperidin-4-yl)-3H-[1,2,3]triazolo[4,5-c]pyridazin-6-yl]phenol] had a half-inhibitory concentration (IC50) of 1000 to 3000 nM.

Take `Cc1nc(F)c(-c2ccc(-c3cc4nnn(C5CC(C)(C)NC(C)(C)C5)c4nn3)c(O)c2)s1` [Cpd 154, 5-(4-fluoro-2-methyl-1,3-thiazol-5-yl)-2-[3-(2,2,6,6-tetramethylpiperidin-4-yl)-3H-[1,2,3]triazolo[4,5-c]pyridazin-6-yl]phenol]: the half-maximal inhibitory concentration (IC50) was no more than 100 nM. The compound `COc1n[nH]cc1-c1ccc(-c2cc3nnn(C4CC(C)(C)NC(C)(C)C4)c3nn2)c(O)c1` [Cpd 131, 5-(3-methoxy-1H-pyrazol-4-yl)-2-[3-(2,2,6,6-tetramethylpiperidin-4-yl)-3H-[1,2,3]triazolo[4,5-c]pyridazin-6-yl]phenol] displayed an IC50 of no more than 100 nM. As for `CC1(C)CC(n2nnc3cc(-c4ccc(-c5cn[nH]c5)cc4O)nnc32)CC(C)(C)N1` [Cpd 7, 5-(1H-pyrazol-4-yl)-2-[3-(2,2,6,6-tetramethylpiperidin-4-yl)-3H-[1,2,3]triazolo[4,5-c]pyridazin-6-yl]phenol], the figure is no more than 100 nM. For `Oc1cc(-c2cn[nH]c2)ccc1-c1cc2[nH]cc(C3=CC4COCC(C3)N4)c2nn1` (stereo not shown) [Cpd 28, 2-[7-(3-oxa-9-azabicyclo[3.3.1]non-6-en-7-yl)-5H-pyrrolo[3,2-c]pyridazin-3-yl]-5-(1H-pyrazol-4-yl)phenol], the half-inhibitory concentration (IC50) was 1000 to 3000 nM. Consider `C[C@]12CC[C@](C)(CC(n3nnc4cc(-c5ccc(-c6cn[nH]c6)cc5O)nnc43)C1)N2` (stereo partly drawn) [Cpd 57, 2-{3-[(1R,5S)-1,5-dimethyl-8-azabicyclo[3.2.1]octan-3-yl]-3H-[1,2,3]triazolo[4,5-c]pyridazin-6-yl}-5-(1H-pyrazol-4-yl)phenol], for which the IC50 is no more than 100 nM. Regarding `Cn1ccc(-c2ccc(-c3cc4nnn([C@H]5CC(C)(C)NC(C)(C)[C@H]5F)c4nn3)c(O)c2)cc1=O` [Cpd 171, 4-(4-{3-[(3S,4S)-3-fluoro-2,2,6,6-tetramethylpiperidin-4-yl]-3H-[1,2,3]triazolo[4,5-c]pyridazin-6-yl}-3-hydroxyphenyl)-1-methylpyridin-2(1H)-one], the IC50 fell in the range of 100 to 500 nM. Compound `CC1(C)CC(n2nnc3cc(-c4ccc(-c5cn[nH]c5)c(F)c4O)nnc32)CC(C)(C)N1` [Cpd 54, 2-fluoro-3-(1H-pyrazol-4-yl)-6-[3-(2,2,6,6-tetramethylpiperidin-4-yl)-3H-[1,2,3]triazolo[4,5-c]pyridazin-6-yl]phenol] registered a half-inhibitory concentration (IC50) of no more than 100 nM.

With `CC1(C)CC(n2nnc3cc(-c4ccc(-c5cn[nH]c5)c(F)c4F)nnc32)CC(C)(C)N1` [Cpd 13, 6-[2,3-difluoro-4-(1H-pyrazol-4-yl)phenyl]-3-(2,2,6,6-tetramethylpiperidin-4-yl)-3H-[1,2,3]triazolo[4,5-c]pyridazine], the IC50 was in the range of 100 to 500 nM.

The compound `CC1(C)CC(N2CCc3cc(-c4ccc(-c5cn[nH]c5)c(F)c4F)nnc32)CC(C)(C)N1` [Cpd 32, 3-[2,3-difluoro-4-(1H-pyrazol-4-yl)phenyl]-7-(2,2,6,6-tetramethylpiperidin-4-yl)-6,7-dihydro-5H-pyrrolo[2,3-c]pyridazine] yielded an IC50 of 100 to 500 nM. For the compound `CC1(C)CC(n2ncc3cc(-c4ccc(-c5cncnc5)cc4O)nnc32)CC(C)(C)N1` [Cpd 167, 5-(pyrimidin-5-yl)-2-[1-(2,2,6,6-tetramethylpiperidin-4-yl)-1H-pyrazolo[3,4-c]pyridazin-5-yl]phenol], the half-maximal inhibitory concentration (IC50) was 1000 to 3000 nM. In the case of `CC1(C)CC(n2nnc3cc(-c4ccc(-c5ccnc(N)c5)cc4O)nnc32)CC(C)(C)N1` [Cpd 99, 5-(2-aminopyridin-4-yl)-2-[3-(2,2,6,6-tetramethylpiperidin-4-yl)-3H-[1,2,3]triazolo[4,5-c]pyridazin-6-yl]phenol], the IC50 is no more than 100 nM. In turn, `Cn1cc(-c2ccc(-c3cc4nnn(C5CC(C)(C)NC(C)(C)C5)c4nn3)c(O)c2)c(F)n1` [Cpd 130, 5-(3-fluoro-1-methyl-1H-pyrazol-4-yl)-2-[3-(2,2,6,6-tetramethylpiperidin-4-yl)-3H-[1,2,3]triazolo[4,5-c]pyridazin-6-yl]phenol] returned an IC50 of no more than 100 nM.

On to `[2H]C([2H])([2H])n1cc(-c2ccc(-c3cc4cnn(C5CC(C)(C)NC(C)(C)C5)c4nn3)c(O)c2)cn1` [Cpd 102, 5-[1-(^2H3)methyl-1H-pyrazol-4-yl]-2-[1-(2,2,6,6-tetramethylpiperidin-4-yl)-1H-pyrazolo[3,4-c]pyridazin-5-yl]phenol], for which the half-maximal inhibitory concentration (IC50) was no more than 100 nM. In the case of `Cn1ncc(-c2ccc(-c3cc4nnn(C5CC(C)(C)NC(C)(C)C5)c4nn3)c(O)c2)c1F` [Cpd 121, 5-(5-fluoro-1-methyl-1H-pyrazol-4-yl)-2-[3-(2,2,6,6-tetramethylpiperidin-4-yl)-3H-[1,2,3]triazolo[4,5-c]pyridazin-6-yl]phenol], the IC50 was no more than 100 nM. `Oc1cc(-c2cn[nH]c2)ccc1-c1cc2[nH]cc(N3CCNCC3)c2nn1` [Cpd 43, 2-[7-(piperazin-1-yl)-5H-pyrrolo[3,2-c]pyridazin-3-yl]-5-(1H-pyrazol-4-yl)phenol] returned a concentration for half-maximal inhibition (IC50) of 500 to 1000 nM. In turn, `CC1(C)CC(n2ccc3cc(-c4ccc(-n5nccn5)cc4O)nnc32)CC(C)(C)N1` [Cpd 176, 2-[7-(2,2,6,6-tetramethylpiperidin-4-yl)-7H-pyrrolo[2,3-c]pyridazin-3-yl]-5-(2H-1,2,3-triazol-2-yl)phenol] returned a 50% inhibitory concentration (IC50) of no more than 100 nM. As for `CC1(C)CC(n2nnc3cc(-c4cc(Cl)c(-c5cn[nH]c5)cc4O)nnc32)CC(C)(C)N1` [Cpd 83, 4-chloro-5-(1H-pyrazol-4-yl)-2-[3-(2,2,6,6-tetramethylpiperidin-4-yl)-3H-[1,2,3]triazolo[4,5-c]pyridazin-6-yl]phenol], the figure is no more than 100 nM. As to `CC1(C)CC(n2nnc3cc(-c4ccc(-c5ccn(C6CC6)c(=O)c5)cc4O)nnc32)CC(C)(C)N1` [Cpd 86, 1-cyclopropyl-4-{3-hydroxy-4-[3-(2,2,6,6-tetramethylpiperidin-4-yl)-3H-[1,2,3]triazolo[4,5-c]pyridazin-6-yl]phenyl}pyridin-2(1H)-one], the IC50 was 1000 to 3000 nM. As for `CC1(C)CC(n2nnc3cc(-c4ccc(-c5ccc6nncn6n5)cc4O)nnc32)CC(C)(C)N1` [Cpd 152, 2-[3-(2,2,6,6-tetramethylpiperidin-4-yl)-3H-[1,2,3]triazolo[4,5-c]pyridazin-6-yl]-5-([1,2,4]triazolo[4,3-b]pyridazin-6-yl)phenol], the figure is 100 to 500 nM; as for `Cn1cc(-c2ccc(-c3cc4cnn(C5CC(C)(C)NC(C)(C)C5)c4nn3)c(O)c2)cn1` [Cpd 98, 5-(1-methyl-1H-pyrazol-4-yl)-2-[1-(2,2,6,6-tetramethylpiperidin-4-yl)-1H-pyrazolo[3,4-c]pyridazin-5-yl]phenol], no more than 100 nM; as for `Oc1cc(-c2cn[nH]c2)ccc1-c1cnc2c(cnn2C2CCNCC2)n1` [Cpd 19, 2-[1-(piperidin-4-yl)-1H-pyrazolo[3,4-b]pyrazin-5-yl]-5-(1H-pyrazol-4-yl)phenol], 1000 to 3000 nM.

Regarding `CC1(C)CC(n2nnc3cc(-c4ccc(-c5ccc(O)nn5)cc4O)nnc32)CC(C)(C)N1` [Cpd 79, 6-{3-hydroxy-4-[3-(2,2,6,6-tetramethylpiperidin-4-yl)-3H-[1,2,3]triazolo[4,5-c]pyridazin-6-yl]phenyl}pyridazin-3-ol], the IC50 is 500 to 1000 nM.

The compound `CC1(C)CC(n2nnc3cc(-c4ccc(-c5c[nH]nc5C#N)cc4O)nnc32)CC(C)(C)N1` [Cpd 109, 4-{3-hydroxy-4-[3-(2,2,6,6-tetramethylpiperidin-4-yl)-3H-[1,2,3]triazolo[4,5-c]pyridazin-6-yl]phenyl}-1H-pyrazole-3-carbonitrile] displayed an IC50 of no more than 100 nM. With `CC1(C)CC(n2ncc3cc(-c4ccc(-c5c[nH]nc5F)cc4O)nnc32)CC(C)(C)N1` [Cpd 161, 5-(3-fluoro-1H-pyrazol-4-yl)-2-(1-(2,2,6,6-tetramethylpiperidin-4-yl)-1H-pyrazolo[3,4-c]pyridazin-5-yl)phenol], the half-maximal inhibitory concentration (IC50) was no more than 100 nM. With `CC1(C)CC(N2CCc3cc(-c4ccc(-c5cn[nH]c5)cc4O)nnc32)CC(C)(C)N1` [Cpd 23, 5-(1H-pyrazol-4-yl)-2-[7-(2,2,6,6-tetramethylpiperidin-4-yl)-6,7-dihydro-5H-pyrrolo[2,3-c]pyridazin-3-yl]phenol], the 50% inhibitory concentration (IC50) is no more than 100 nM.

`CC1(C)CC(n2nnc3cc(-c4ccc(-c5cnn(C(F)F)c5)cc4O)nnc32)CC(C)(C)N1` [Cpd 71, 5-[1-(difluoromethyl)-1H-pyrazol-4-yl]-2-[3-(2,2,6,6-tetramethylpiperidin-4-yl)-3H-[1,2,3]triazolo[4,5-c]pyridazin-6-yl]phenol]: the IC50 lay within 100 to 500 nM. In turn, `CC1(C)CC(n2nnc3cc(-c4ccc(-c5ccnc(C(F)(F)F)c5)cc4O)nnc32)CC(C)(C)N1` [Cpd 74, 2-[3-(2,2,6,6,-tetramethylpiperidin-4-yl)-3H-[1,2,3]triazolo[4,5-c]pyridazin-6-yl]-5-[2-(trifluoromethyl)pyridin-4-yl]phenol] returned an IC50 of 100 to 500 nM. As for `CC(C)(C)NC1CC(n2nnc3cc(-c4ccc(-c5cn[nH]c5)cc4O)nnc32)C1` (stereo not shown) [Cpd 170, 2-{3-[3-(tert-butylamino)cyclobutyl]-3H-[1,2,3]triazolo[4,5-c]pyridazin-6-yl}-5-(1H-pyrazol-4-yl)phenol], the IC50 is 1000 to 3000 nM. Compound `Oc1cc(-c2cn[nH]c2)ccc1-c1cc2[nH]cc(C3=CC4CCC(C3)N4)c2nn1` (stereo not shown) [Cpd 27, 2-[7-(8-azabicyclo[3.2.1]oct-2-en-3-yl)-5H-pyrrolo[3,2-c]pyridazin-3-yl]-5-(1H-pyrazol-4-yl)phenol] registered an IC50 of no more than 100 nM.

(Values after US11858941B2, “Heterocyclic and heteroaryl compounds for treating Huntington's disease” (PTC THERAPEUTICS, INC., priority 2018, dated 2024).)
